Test results reported in PMC5047949, “Kinetic analysis of the translocator protein positron emission tomography ligand [^18F]GE-180 in the human brain” (European Journal of Nuclear Medicine and Molecular Imaging, 2016).

How the values were obtained:
[1] = test system: translocator protein (TSPO); assay: Dynamic [^18F]GE-180 brain PET with arterial input; 1TC, 2TC and Logan kinetic modelling; assay type: in vivo, human; settings: for Distribution volume ratio: cortical grey matter pseudoreference, median (IQR); for K1 / VT / k2 / k3 / k4: median (interquartile range)
Description: PET studies were performed on a Biograph 6 (six-slice CT) scanner after administration of 182 ± 3.1 MBq via intravenous bolus injection over 10 s followed by a 10-mL saline flush. A low-dose CT scan preceded the PET acquisition to allow correction for tissue attenuation. Emission data were then acquired over 90 min in list mode and reconstructed as 24 temporal frames (6 × 15, 3 × 60, 5 × 120, 5 × 300, 5 × 600 s) using filtered back-projection (matrix size 168 × 168, zoom 2.6, 5-mm gaussian filter, pixel size 1.56 × 1.56, slice thickness 3 mm) with and without attenuation correction. Standard corrections for scatter, decay and random counts were applied.
We used the PET data analysis and kinetic modelling toolkit, MIAKAT™ (www.miakat.org), which incorporates software from SPM5 (Wellcome Trust Centre for Neuroimaging) and FSL (FMRIB, University of Oxford). The brain was initially extracted from the T1-weighted MR images. The CIC neuroanatomical atlas was nonlinearly registered to the individual’s extracted brain in order to generate a personalized set of anatomically parcellated regions. Frame-by-frame motion correction of the dynamic (without attenuation correction) PET data was performed using mutual information coregistration of the individual frames to a reference frame. An average motion-corrected PET image was generated and used for coregistration with the T1-weighted MR image. Finally, regional tissue time–activity curves (TACs) were generated for each region of interest (ROI) defined from the CIC atlas that had been transformed into each individual’s image space.
Datasets were analysed with a one-tissue compartment (1TC) model and a two-tissue compartment (2TC) model and the Logan graphical method, using the metabolite-corrected plasma input function as previously described with a fixed 5 % blood volume correction. The primary outcome measures were the radioligand delivery rate constant (K1; mL cm^−3 min^−1), total distribution volume (VT: mL cm^−3), and standardized uptake values (SUV). The SUV ratio (SUVR) and distribution volume ratio (DVR) were estimated using the cortical grey matter as a pseudo reference region.
To investigate the stability of VT over different scan durations, a time stability analysis was performed by analysing data for total time windows that ranged between 40 and 90 min in 10-min increments.

[2] = Arterial whole-blood and plasma activity, and parent fraction by HPLC; assay type: in vivo, human
Description: Arterial blood activity was measured every second for the first 15 min of the 90-min scan using an automated blood sampling system (ABSS Allog, Mariefred, Sweden) connected to the subject via a 1.5 m × 1.0 mm diameter polytetrafluoroethylene line (blood withdrawal rate 2.5 ml/min). In addition, blood samples (10 mL) were collected manually from the radial artery at 0, 5, 10, 15, 30, 50, 70 and 90 min to assay whole-blood and plasma activity. Plasma was obtained by centrifugation for 3 min at 1,800 g. Activity in whole blood and plasma was measured in a CAPRAC-t well counter over 10 – 60 s. The first 15 min of continuous whole-blood activity was combined with the activity from discrete samples to generate the whole-blood activity curve for use in data modelling. The continuous plasma-to-blood ratio was estimated using a constant model and a total plasma activity curve was obtained by correcting the whole-blood curve for this partition between plasma and blood.
The parent fraction of [^18F]GE-180 was measured by high-performance liquid chromatography (Agilent 1,100 and 1,260 series) of discrete plasma samples (3.5 mL). The parent fraction was fitted to a single exponential plus a constant model. The total plasma activity was multiplied by this parent fraction and then smoothed post peak by fitting to a triexponential function to generate an arterial parent plasma input function. A delay correction of up to +30 s was applied to the input function prior to fitting the kinetic modelling. This was performed to account for delay in the 1.5-m tube (28.3 s) and delay between the radial artery and the brain.

[3] = Safety and tolerability after radioligand administration; assay type: in vivo, human
Source text: With regard to correlations between age and the principal outcome measure, there were no significant correlations between age and VT in either HABs and MABs in any of the ROIs studied (Spearman’s rho = −0.3 – 0.7 p = 0.188 – 0.873 in HABs; Spearman’s rho = 0.1 – 0.8, p = 0.104 – 0.94 in MABs). There were also no significant relationships between age and outcome measures when added as a covariate in the repeated measures ANOVA. Demographic data are provided in Supplementary Table 1.

[4] = pH 7.4; preclinical work; cited from earlier work
[5] = humans; in vitro work, not measured in this study; cited from earlier work
[6] = design: method as in PMID 26072270; settings: 60 min; earlier preclinical work; cited from earlier work
[7] = 2TC-fix model, across all regions and subjects
[8] = Logan graphical method, Cerebellum
[9] = Logan graphical method, Frontal lobe
[10] = Logan graphical method, Occipital lobe
[11] = Logan graphical method, Parietal lobe
[12] = Logan graphical method, Striatum
[13] = Logan graphical method, Temporal lobe
[14] = Logan graphical method, Thalamus

## CCN(CC)C(=O)[C@H]1CCCc2c1c1c(OC)cccc1n2CC[18F] [[^18F]GE-180]
[1]; 1TC model, Cerebellum
  Distribution volume ratio: 0.968 (0.91 – 1)
  K1: 0.00656 (0.0054 – 0.0076) mL/min
  VT: 0.178 (0.16 – 0.22) mL/cm^3
  k2: 0.0339 (0.034 – 0.034) /min
[1]; 1TC model, Frontal lobe
  Distribution volume ratio: 0.939 (0.94 – 0.95)
  K1: 0.00472 (0.0041 – 0.006) mL/min
  VT: 0.171 (0.15 – 0.22) mL/cm^3
  k2: 0.0271 (0.023 – 0.028) /min
[1]; 1TC model, Occipital lobe
  Distribution volume ratio: 1.12 (1.1 – 1.2)
  K1: 0.00621 (0.0057 – 0.0074) mL/min
  VT: 0.214 (0.19 – 0.25) mL/cm^3
  k2: 0.03 (0.025 – 0.032) /min
[1]; 1TC model, Parietal lobe
  Distribution volume ratio: 0.969 (0.96 – 1)
  K1: 0.00513 (0.004 – 0.0061) mL/min
  VT: 0.19 (0.16 – 0.22) mL/cm^3
  k2: 0.027 (0.024 – 0.028) /min
[1]; 1TC model, Striatum
  Distribution volume ratio: 0.826 (0.78 – 0.89)
  K1: 0.00358 (0.003 – 0.0046) mL/min
  VT: 0.155 (0.14 – 0.2) mL/cm^3
  k2: 0.0241 (0.021 – 0.025) /min
[1]; 1TC model, Temporal lobe
  K1: 0.00514 (0.0048 – 0.006) mL/min
  VT: 0.182 (0.17 – 0.24) mL/cm^3
  k2: 0.0266 (0.025 – 0.028) /min
[1]; 1TC model, Thalamus
  Distribution volume ratio: 1.03 (0.96 – 1.1)
  K1: 0.00555 (0.0046 – 0.0058) mL/min
  VT: 0.182 (0.17 – 0.24) mL/cm^3
  k2: 0.0261 (0.024 – 0.028) /min
[1]; 2TC model, Cerebellum
  Distribution volume ratio: 0.916 (0.69 – 0.98)
  K1: 0.0224 (0.016 – 1.3) mL/min
  VT: 0.281 (0.25 – 0.33) mL/cm^3
  k2: 0.319 (0.23 – 78) /min
  k3: 0.0331 (0.029 – 0.091) /min
  k4: 0.0113 (0.0084 – 0.018) /min
[1]; 2TC model, Frontal lobe
  Distribution volume ratio: 0.984 (0.96 – 1.2)
  K1: 0.0102 (0.0089 – 0.013) mL/min
  VT: 0.346 (0.26 – 0.5) mL/cm^3
  k2: 0.195 (0.15 – 1.6) /min
  k3: 0.0301 (0.024 – 0.15) /min
  k4: 0.00653 (0.004 – 0.017) /min
[1]; 2TC model, Occipital lobe
  Distribution volume ratio: 1.07 (0.97 – 1.1)
  K1: 0.0238 (0.019 – 0.031) mL/min
  VT: 0.35 (0.3 – 0.52) mL/cm^3
  k2: 0.385 (0.2 – 0.62) /min
  k3: 0.0395 (0.036 – 0.054) /min
  k4: 0.0101 (0.0062 – 0.014) /min
[1]; 2TC model, Parietal lobe
  Distribution volume ratio: 1.01 (0.98 – 1.1)
  K1: 0.0116 (0.011 – 0.014) mL/min
  VT: 0.33 (0.31 – 0.42) mL/cm^3
  k2: 0.192 (0.15 – 0.25) /min
  k3: 0.0334 (0.025 – 0.039) /min
  k4: 0.00873 (0.0045 – 0.014) /min
[1]; 2TC model, Striatum
  Distribution volume ratio: 0.451 (0.41 – 0.71)
  K1: 0.00413 (0.0033 – 0.0088) mL/min
  VT: 0.155 (0.14 – 0.22) mL/cm^3
  k2: 1.14 (0.66 – 1.7) /min
  k3: 4.89 (0.62 – 9.1) /min
  k4: 0.14 (0.027 – 0.21) /min
[1]; 2TC model, Temporal lobe
  Distribution volume ratio: 0.958 (0.93 – 1)
  K1: 0.0143 (0.012 – 0.032) mL/min
  VT: 0.306 (0.27 – 0.42) mL/cm^3
  k2: 0.217 (0.16 – 1.3) /min
  k3: 0.0348 (0.03 – 0.15) /min
  k4: 0.00927 (0.0063 – 0.016) /min
[1]; 2TC model, Thalamus
  Distribution volume ratio: 0.922 (0.81 – 1.1)
  K1: 0.0118 (0.011 – 0.014) mL/min
  VT: 0.376 (0.28 – 0.41) mL/cm^3
  k2: 0.16 (0.14 – 0.2) /min
  k3: 0.0315 (0.026 – 0.042) /min
  k4: 0.00881 (0.0062 – 0.012) /min
[1]; 2TC model, healthy subjects
  average regional delivery rate constant (K1): 0.01 mL cm^−3 min^−1
[1]; [7]
  K1, average: 0.013 mL cm^−3 min^−1
  VT, average: 0.311 mL cm^−3
  k2, average: 0.229 min⁻¹
  k3, average: 0.035 min⁻¹
  k4, average: 0.010 min⁻¹
[1]; [8]
  Distribution volume ratio: 0.99 (0.91 – 1)
  VT: 0.29 (0.24 – 0.3) mL/cm^3
[1]; [9]
  Distribution volume ratio: 0.931 (0.92 – 0.97)
  VT: 0.265 (0.23 – 0.33) mL/cm^3
[1]; [10]
  Distribution volume ratio: 1.14 (1.1 – 1.2)
  VT: 0.34 (0.3 – 0.39) mL/cm^3
[1]; [11]
  Distribution volume ratio: 0.996 (0.93 – 1)
  VT: 0.284 (0.23 – 0.35) mL/cm^3
[1]; [12]
  Distribution volume ratio: 0.844 (0.7 – 0.92)
  VT: 0.25 (0.21 – 0.29) mL/cm^3
[1]; [13]
  Distribution volume ratio: 1.01 (0.95 – 1.1)
  VT: 0.312 (0.24 – 0.36) mL/cm^3
[1]; [14]
  Distribution volume ratio: 0.991 (0.98 – 1)
  VT: 0.3 (0.26 – 0.31) mL/cm^3
[1]; all subjects
  time of peak concentration in the brain: around 1 min
[1]; healthy subjects, from K1 of the 2TC model
  extraction across the blood–brain barrier (first-pass extraction): approximately 1%
[1]; striatum (lowest ROI), 2TC model
  estimated median VT: 0.16 mL cm^−3
[1]; thalamus (highest ROI), 2TC model
  estimated median VT: 0.38 mL cm^−3
[1]; tissue TAC minus whole-blood radioactivity curve
  share of activity in a typical ROI that came from blood: approximately 20%
[2]; 90 min, plasma
  intact parent tracer remaining: 70%
[2]; arterial plasma after i.v. bolus
  time of peak concentration in plasma: about 45 s
[2]; constant across subjects
  plasma-to-blood ratio: about 1.69
[2]; over the 90 min scanning window
  polar radioactive metabolites (three) in plasma: < 10 % of parent compound
[3]; healthy subjects
  safety of tracer administration: safe
[3]; patient reports, blood pressure, pulse, respiration rate, oxygen saturation
  pharmacological effects after injection: no pharmacological effects
[4]
  logD: 2.95
[5]
  plasma free fraction: approximately 3%
[6]
  parent in the brain: 94%
